Source: patent US10745401B2, “Condensed lactam derivative” (Sumitomo Dainippon Pharma Co., Ltd., priority 2018, dated 2020)

What was measured:
human 5-HT1A receptor [1] = biological target: T1, human 5-HT1A receptor (Homo sapiens (Human), UniProt P08908); test: Test 1: binding activity for human 5-HT1A receptor ([3H]8-OH-DPAT, CHO cell membrane fraction)
Experimental: (§1) Test 1: Evaluation of Binding Activity for Human 5-HT1A Receptor, Human 5-HT2A Receptor, and Human D2 Receptor
(§2) Binding affinity of the present compound for human 5-HT1A receptor, human 5-HT2A receptor, and human D2 receptor was measured by the following procedures.
(§3) Each mixture was incubated at room temperature for 60 minutes. Then, the mixture was added quickly on a glassfiber filter plate (Multiscreen FB, Millipore, Inc.) coated with 0.3% aqueous polyethylenimine, and vacuum-filtered. Radioactivity remaining on the filter was measured with a liquid scintillation counter (PerkinElmer, Inc.). Binding inhibition rate was calculated from the following formula.
(§4) IC50 value was calculated by Hill analysis (Physiology, 1910, 40, 190-200). Ki of each compound was calculated from the following formula. Binding inhibition constant (Ki)=IC50/(1+S/Kd) wherein S is concentration of ligand; Kd is a binding dissociation constant of ligand to membrane, which is calculated from a saturated binding experiment conducted with the same cell membrane. A small Ki value means strong binding ability to a receptor.

human D2 receptor = human D2 receptor (Homo sapiens (Human), UniProt P14416); test: Test 1: binding activity for human D2 receptor ([3H]Spiperone, CHO cell membrane fraction); settings: human D2 receptor, [3H]Spiperone
Experimental: as §1, §2, §3
as §4, with “Ki” for “IC50 value was calculated by Hill analysis (Physiology, 1910, 40, 190-200). Ki”

human 5-HT1A receptor [2] = biological target: T1, human 5-HT1A receptor; test: Test 2: agonist activity for human 5-HT1A receptor ([35S]GTPγS binding); format: biochemical; settings: for EC50: [35S]GTPγS binding, concentration at which half the activity of Emax was obtained; for Emax at 10 µM: agonist activity in the presence of 10 μM of compound, relative to 100 μmol/L 5-HT
Experimental: Test 2: Evaluation of Agonist Activity for Human 5-HT1A Receptor
CHO cell membrane fraction in which human 5-HT1A receptor was expressed as used in Test 1 was purchased. To a buffer containing guanosine diphosphate were added a test compound dissolved in DMSO, each receptor membrane sample diluted with buffer, and [^35S] Guanosine 5′-O-[gamma-thio]triphosphate (GTPγS). The mixture was incubated at room temperature for 60 minutes. Then, the mixture was added quickly on a glassfiber filter plate (Multiscreen FB, Millipore, Inc.), and vacuum-filtered. Radioactivity remaining on the […] was measured with a liquid scintillation counter. Agonist activity was calculated from the following formula.

[3] = Test 4: metabolic stability test in human hepatic microsome; format: in vitro ADME; settings: 0.1 mg/mL microsome, 0.1 μmol/L compound, 37° C., 30 minutes
Experimental: Test 4: Metabolic Stability Test in Human Hepatic Microsome
The stability of the present compound in human hepatic microsome metabolism was evaluated as mentioned below. Human hepatic microsome was obtained from Xenontech. Human hepatic microsome, NADPH, and each test compound were mixed in 25 mmol/L phosphate buffer solution (pH 7.4) to reach the following concentrations as shown below, and the mixture was incubated at 37° C. for 30 minutes. • Human hepatic microsome: 0.1 mg/mL • NAPDH: 3.2 mmol/L • Test compound: 0.1 μmol/L
The residual ratio of the test compound in each sample after 30 minutes was measured by LC-MS, and the metabolic stability in human hepatic microsome was calculated from the following formula. Metabolic stability in human hepatic microsome (mL/min/mg protein)=−LN (residual ratio)/30/0.1

hERG channel = hERG channel (Homo sapiens (Human), UniProt Q12809); test: Test 6-1: inhibitory activity for hERG channel (auto patch clamp, Qpatch); format: cell-based; settings: whole cell auto patch clamp, hERG-CHO cells; read-out: hERG inhibition IC50
Experimental: Test 6-1: Evaluation of Inhibitory Activity for hERG Channel
Inhibitory activity of the present compound for hERG channel was measured by whole cell patch clamp method with an auto patch clamp system using CHO cells in which hERG channel involved in human rapidly activating delayed rectifier potassium current (IKr) was forcibly expressed.
hERG-CHO cells purchased from ChanTest Cop. were cultured in a CO2 incubator at 37° C., and dissociated from a flask with trypsin shortly before the measurement of hERG current, to prepare a cell suspension.
Extracellular fluid: 2 mmol/L CaCl2, 1 mmol/L MgCl2, 10 mmol/L HEPES, 4 mmol/L KCl, 145 mmol/L NaCl, 10 mmol/L Glucose
Intracellular fluid: 5.4 mmol/L CaCl2, 1.8 mmol/L MgCl2, 10 mmol/L HEPES, 31 mmol/L KOH, 10 mmol/L EGTA, 120 mmol/L KCl, 4 mmol/L Na2-ATP
Test compound solution: Test compound was dissolved in DMSO to reach the concentration of 2 mmol/L or 20 mmol/L, in order to prepare a test compound solution. […] (Measurement of Current Value and Data Analysis)
The cell suspension, the extracellular fluid, the intracellular fluid, and the measurement plate were set in the auto patch clamp system, and hERG current was measured by whole cell patch clamp method. […] Each pulse interval was 15 seconds. The data analysis was carried out with Qpatch Assay Software (Biolin Scientific). The test was carried out by applying incrementally 4 concentrations of each test compound, and the average of the maximum peak tail currents which were obtained from the last 3 stimulations in each concentration was determined as the evaluated data. Based on the current inhibition rate for a pre-applied current at each concentration of each test compound, IC50 value was calculated by Hill equation with the software.

Sequence of hERG channel (Q12809 whole entry): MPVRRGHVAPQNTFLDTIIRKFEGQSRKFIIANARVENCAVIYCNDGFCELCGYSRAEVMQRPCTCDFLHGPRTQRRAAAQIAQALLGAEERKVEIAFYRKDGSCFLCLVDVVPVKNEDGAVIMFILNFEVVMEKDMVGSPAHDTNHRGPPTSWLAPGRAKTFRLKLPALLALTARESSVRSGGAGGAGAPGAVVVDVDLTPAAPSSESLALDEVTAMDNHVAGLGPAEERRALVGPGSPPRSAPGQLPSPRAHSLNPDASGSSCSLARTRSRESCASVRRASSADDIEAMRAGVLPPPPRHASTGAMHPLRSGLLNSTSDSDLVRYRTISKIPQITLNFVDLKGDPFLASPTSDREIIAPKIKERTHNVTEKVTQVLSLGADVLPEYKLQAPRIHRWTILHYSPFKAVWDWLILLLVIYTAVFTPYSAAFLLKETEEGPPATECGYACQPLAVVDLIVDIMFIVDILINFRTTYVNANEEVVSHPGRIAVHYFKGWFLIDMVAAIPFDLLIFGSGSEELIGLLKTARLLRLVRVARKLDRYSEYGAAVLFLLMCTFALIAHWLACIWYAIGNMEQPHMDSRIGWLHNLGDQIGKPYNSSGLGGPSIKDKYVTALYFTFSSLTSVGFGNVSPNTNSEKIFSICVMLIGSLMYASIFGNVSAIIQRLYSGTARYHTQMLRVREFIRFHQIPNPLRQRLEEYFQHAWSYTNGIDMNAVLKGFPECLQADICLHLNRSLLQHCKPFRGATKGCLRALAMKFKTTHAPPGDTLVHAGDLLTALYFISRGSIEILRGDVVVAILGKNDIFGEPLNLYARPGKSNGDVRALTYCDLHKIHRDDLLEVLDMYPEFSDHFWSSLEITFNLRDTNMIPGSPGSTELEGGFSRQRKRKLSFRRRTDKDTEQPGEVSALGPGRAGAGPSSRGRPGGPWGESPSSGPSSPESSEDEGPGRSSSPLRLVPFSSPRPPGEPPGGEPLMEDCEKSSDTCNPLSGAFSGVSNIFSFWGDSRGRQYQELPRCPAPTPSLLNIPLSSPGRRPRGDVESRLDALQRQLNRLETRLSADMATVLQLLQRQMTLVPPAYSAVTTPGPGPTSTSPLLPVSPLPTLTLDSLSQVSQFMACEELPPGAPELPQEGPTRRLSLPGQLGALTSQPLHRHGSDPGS
T1 sequence (P08908 whole entry): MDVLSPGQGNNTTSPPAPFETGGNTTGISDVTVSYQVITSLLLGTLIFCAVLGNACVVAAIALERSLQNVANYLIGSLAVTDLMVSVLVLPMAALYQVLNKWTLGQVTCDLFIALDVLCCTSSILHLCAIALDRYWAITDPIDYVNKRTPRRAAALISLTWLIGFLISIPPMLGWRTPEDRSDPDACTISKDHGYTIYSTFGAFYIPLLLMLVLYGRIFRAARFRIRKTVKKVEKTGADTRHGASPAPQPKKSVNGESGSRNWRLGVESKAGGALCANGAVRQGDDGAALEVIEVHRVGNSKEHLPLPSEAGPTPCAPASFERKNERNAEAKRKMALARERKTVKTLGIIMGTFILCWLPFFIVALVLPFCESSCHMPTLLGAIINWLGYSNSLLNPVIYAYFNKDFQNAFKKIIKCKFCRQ
Sequence of human D2 receptor (P14416 whole entry): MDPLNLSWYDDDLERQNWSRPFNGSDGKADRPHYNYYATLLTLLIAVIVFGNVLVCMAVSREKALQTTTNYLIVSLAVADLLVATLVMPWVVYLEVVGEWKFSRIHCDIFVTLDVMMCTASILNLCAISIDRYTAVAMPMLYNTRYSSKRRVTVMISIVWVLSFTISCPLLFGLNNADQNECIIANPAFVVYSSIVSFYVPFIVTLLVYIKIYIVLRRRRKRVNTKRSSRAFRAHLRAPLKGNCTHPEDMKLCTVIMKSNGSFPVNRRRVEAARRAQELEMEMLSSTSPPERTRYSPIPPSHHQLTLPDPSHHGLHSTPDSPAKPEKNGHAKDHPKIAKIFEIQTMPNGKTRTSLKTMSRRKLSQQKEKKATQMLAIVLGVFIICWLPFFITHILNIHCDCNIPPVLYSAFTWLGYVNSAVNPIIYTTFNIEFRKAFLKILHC

| Compound | Ki (human 5-HT1A receptor [1]) [nM] | Ki (human D2 receptor) [nM] | EC50 (human 5-HT1A receptor [2]) [nM] | Emax at 10 µM (human 5-HT1A receptor [2]) [%] | Metabolic stability in human hepatic microsome [3] [mL/min/mg protein] | IC50 (hERG channel) [µM] |
| --- | --- | --- | --- | --- | --- | --- |
| O=C1c2ncccc2CCN1CCN1CCN(c2nsc3cc(F)ccc23)CC1 [Example 27] | 6.04 | 230 | 55.4 | 58 | 0.048 | 1.3 |
| Cn1ncc2c1CCC(CCN1CCN(c3nsc4ccccc34)CC1)C2=O (centres unmarked) [Example 29] | 0.68 | 143 | 64.5 | 42 | 0.063 | 2.3 |
| Cc1noc2c1C(=O)N(CCN1CCC(c3noc4ccccc34)CC1)CC2 [Example 33] | 9.35 | 1010 | 463 | 49 | 0.074 | 0.6 |
| Cc1nc2c(o1)CCN(CCN1CCC(c3noc4ccccc34)CC1)C2=O [Example 39] | 0.84 | 1860 | 9.06 | 61 | 0.016 | 1.8 |
| Cn1cc2c(n1)CCCN(CCN1CCC(c3noc4ccccc34)CC1)C2=O [Example 41] | 10.9 | 131 | 79.3 | 45 | <0.01 | 0.5 |
| Cn1cc2c(n1)CCCN(CCN1CCN(c3nsc4ccccc34)CC1)C2=O [Example 42] | 2.19 | 119 | 23.5 | 57 | 0.100 | 2.4 |
| Cn1ncc2c1CCCN(CCN1CCN(c3nsc4ccccc34)CC1)C2=O [Example 44] | 0.22 | 121 | 1.8 | 76 | 0.04 | 7.7 |
| Cn1cc2c(n1)C(=O)N(CCN1CCN(c3nsc4ccccc34)CC1)CC2 [Example 50] | 1.25 | 825 | 5.14 | 59 | 0.038 | 8.5 |
| Cc1nc2c(o1)CCN(CCN1CCN(c3nsc4ccccc34)CC1)C2=O [Example 51] | 0.23 | 993 | 2.08 | 61 | 0.074 | 5.1 |
| Cn1cnc2c1C(=O)N(CCN1CCN(c3nsc4ccccc34)CC1)CCC2 [Example 55] | 13.6 | 697 | 4.3 | 50 | 0.161 | > 10 |
| O=C1c2cncnc2CCN1CCN1CCN(c2nsc3ccccc23)CC1 [Example 58] | 6.9 | 780 | 42.1 | 51 | 0.092 | 6 |
| Cn1ccc2c1CCN(CCN1CCN(c3nsc4ccccc34)CC1)C2=O [Example 61] | 1.7 | 134 | 9.8 | 63 | 0.056 | > 10 |
| O=C1c2cnc(Br)cc2CCN1CCN1CCN(c2nsc3ccccc23)CC1 [Example 62] | 0.1 | 222 | 1.01 | 62 | 0.505 | 1.5 |
| Cn1ncc2c1CCN(CCN1CCN(c3nsc4ccccc34)CC1)C2=O [Example 63] | 6.5 | 791 | 16 | 73 | <0.01 | 7.8 |
| CCn1ncc2c1CCN(CCN1CCN(c3nsc4ccccc34)CC1)C2=O [Example 64] | 17.4 | 430 | 191 | 69 | 0.064 | 7.7 |
| Cc1c2c(nn1C)CCN(CCN1CCN(c3nsc4ccccc34)CC1)C2=O [Example 65] | 0.9 | 222 | 2.1 | 72 | 0.126 | 4.4 |
| CC(C)c1nc2c(o1)C(=O)N(CCN1CCN(c3nsc4ccccc34)CC1)CC2 [Example 66] | 8.68 | 841 | 78.2 | 67 | 0.357 | 2.1 |
| O=C1c2cn(C3CC3)nc2CCN1CCN1CCN(c2nsc3ccccc23)CC1 [Example 75] | 2.39 | 210 | 7.13 | 56 | 0.174 | 1.2 |
| O=C1c2cn(C3CC3)nc2CCN1CCN1CCC(c2noc3ccccc23)CC1 [Example 76] | 6.48 | 472 | 4.13 | 35 | 0.018 | < 0.27 |
| CC1CN(CCN2CCN(c3nsc4ccccc34)CC2)C(=O)c2cnn(C)c21 (centres unmarked) [Example 77] | 0.24 | 605 | 1.3 | 78 | 0.119 | 4.6 |
| Cn1nc2c(c1C(F)(F)F)C(=O)N(CCN1CCN(c3nsc4ccccc34)CC1)CC2 [Example 78] | 0.46 | 343 | 0.77 | 66 | 0.459 | 5.5 |
| CC1CN(CCN2CCN(c3nsc4ccccc34)CC2)C(=O)c2ccn(C)c21 (centres unmarked) [Example 79] | 0.19 | 239 | 6.21 | 63 | 0.409 | 4.5 |
| Cc1nccc2c1C(=O)N(CCN1CCN(c3noc4ccccc34)CC1)CC2 [Example 85] | 101 | 1070 | 41.1 | 35 | 0.046 | > 10 |
| Cc1nccc2c1C(=O)N(CCN1CCC(c3noc4ccccc34)CC1)CC2 [Example 87] | 0.12 | 94 | – | 76 | 0.458 | 0.5 |
